# In patent US20110144160A1, “Antagonists of Prostaglandin D2 Receptors” (Amira Pharmaceuticals, Inc., priority 2008, published 2011):
# Target: T1, human DP2 receptor (Homo sapiens, UniProt Q9Y5Y4)
# T1 construct: expressed in transfected cells
# T1 sequence (Q9Y5Y4 1-395): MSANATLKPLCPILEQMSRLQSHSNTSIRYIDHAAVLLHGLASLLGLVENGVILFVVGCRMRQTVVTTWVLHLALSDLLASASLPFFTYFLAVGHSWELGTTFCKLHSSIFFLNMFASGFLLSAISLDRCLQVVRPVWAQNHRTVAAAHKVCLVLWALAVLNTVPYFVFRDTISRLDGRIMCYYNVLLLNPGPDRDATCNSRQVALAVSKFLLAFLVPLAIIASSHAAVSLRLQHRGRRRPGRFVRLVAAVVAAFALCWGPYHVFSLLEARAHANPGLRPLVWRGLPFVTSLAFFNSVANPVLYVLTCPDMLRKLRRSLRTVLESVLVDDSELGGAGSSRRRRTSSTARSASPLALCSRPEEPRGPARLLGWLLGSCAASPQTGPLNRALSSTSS
# Assay: DP2/CRTH2 binding assay ([3H]PGD2 radioligand)
# Conditions: membranes of HEK293 cells expressing recombinant human DP2, 1 nM [3H]PGD2; read-out: hDP2
# Method: The ability of a compound to bind to the human DP2 receptor is assessed via a radioligand binding assay using [^3H]PGD2. HEK293 cells stably expressing recombinant human DP2 are resuspended in 10 mM Hepes, 7.4 containing 1 mM DTT, lysed and centrifuged at 75,000×g to pellet the membranes. The membranes are resuspended in 10 mM Hepes, 7.4 containing 1 mM DTT and 10% glycerol to approximately 5 mg protein/ml. Membranes (2-10 μg protein/well) are incubated in 96-well plates with 1 nM [^3H]PGD2 and test compound in Assay Buffer (50 mM Hepes, 10 mM MnCl2, 1 mM EDTA, plus or minus 0.2% human serum albumin, pH 7.4) for 60 minutes at room temperature. The reactions are terminated by rapid filtration through Whatman GF/C glass fibre filter plates. The filter plates were pre-soaked in 0.33% polythylenimine for 30 minutes at room temperature then washed in Wash Buffer (50 mM Hepes, 0.5 M NaCl pH 7.4) prior to harvesting. After harvesting, the filter plates are washed 3 times with 1 ml cold Wash Buffer then dried. Scintillant is then added to the plates and the radioactivity retained on the filters is determined on a Packard TopCount (Perkin Elmer). Specific binding is determined as total radioactive binding minus non-specific binding in the presence of 10 μM PGD2. IC50s were determined using GraphPad prism analysis of drug titration curves.
row,SMILES,IC50 [nM]
1,"COc1ccc(CC(=O)O)cc1Oc1ccc(NC(=O)c2ccc(Cl)cc2)cc1CSc1ccc(Cl)cc1 [Compound 4, {3-[4-(4-Chloro-benzoylamino)-2-(4-chloro-phenylsulfanylmethyl)-phenoxy]-4-methoxy-phenyl}-acetic acid]",< 300
2,"COc1ccc(CC(=O)O)cc1Oc1ccc(NS(=O)(=O)c2cccc3c(N(C)C)cccc23)cc1CSC(C)(C)C [Compound 72, {3-[2-tert-butylsulfanylmethyl-4-(5-dimethylamino-naphthalene-1-sulfonylamino)-phenoxy]-4-methoxy-phenyl}-acetic acid]",300 to 1000
3,"COc1ccc(CC(=O)O)cc1Oc1ccc(NC(=O)C(C)(C)C)cc1CS(=O)(=O)CC(F)(F)F [Compound 12, {3-[4-(2,2-Dimethyl-propionylamino)-2-(trifluoro-ethanesulfonylmethyl)-phenoxy]-4-methoxy-phenyl}-acetic acid]",< 300
4,"CC(C)(C)C(=O)Nc1ccc(Oc2cc(Cl)cc(CC(=O)O)c2)c(CS(=O)(=O)C(C)(C)C)c1 [Compound 48, {3-Chloro-5-[4-(2,2-dimethyl-propionylamino)-2-(2-methyl-propane-2-sulfonylmethyl)-phenoxy]-phenyl}-acetic acid]",< 300
5,"CC(C)SCc1cc(NC(=O)C(C)(C)C)ccc1Oc1cc(CC(=O)O)ccc1Cl [Compound 52, {4-Chloro-3-[4-(2,2-dimethyl-propionylamino)-2-isopropylsulfanylmethyl-phenoxy]-phenyl}-acetic acid]",< 300
6,"COc1ccc(CC(=O)O)cc1Oc1ccc(NC(=O)C(C)C)cc1CSC(C)(C)C [Compound 36, [3-(2-tert-Butylsulfanylmethyl-4-isobutyrylamino-phenoxy)-4-methoxy-phenyl]-acetic acid]",< 300
7,"COc1ccc(CC(=O)O)cc1Oc1ccc(NC(=O)c2ccc(Cl)cc2)cc1CSC(C)C [Compound 20, {3-[4-(4-Chloro-benzoylamino)-2-isopropylsulfanylmethyl-phenoxy]-4-methoxy-phenyl}-acetic acid]",< 300
8,"COc1ccc(CC(=O)O)cc1Oc1ccc(N2CCOC2=O)cc1CSCC(F)(F)F [Compound 38, {4-Methoxy-3-[4-(2-oxo-oxazolidin-3-yl)-2-(2,2,2-trifluoro-ethylsulfanylmethyl)-phenoxy}-phenyl]-acetic acid]",300 to 1000
9,"COc1ccc(CC(=O)O)cc1Oc1ccc(C(=O)NCC(=O)c2ccccc2)cc1CSC(C)(C)C [Compound 40, {3-[2-tert-butylsulfanylmethyl-4-(2-oxo-2-phenyl-ethylcarbamoyl)-phenoxy]-4-methoxy-phenyl}-acetic acid]",< 300
10,"C=Cc1ccc(CC(=O)O)cc1Oc1ccc(NC(=O)C(C)(C)C)cc1CSCC(F)(F)F [Compound 55, {3-[4-(2,2-Dimethyl-propionylamino)-2-(2,2,2-trifluoro-ethylsulfanylmethyl)-phenoxy]-4-vinyl-phenyl}-acetic acid]",< 300
11,"COc1ccc(CC(=O)O)cc1Oc1ccc(NC(=O)C(C)C)cc1CSCC(F)(F)F [Compound 15, {3-[4-isobutyrylamino-2-(2,2,2-trifluoro-ethylsulfanylmethyl)-phenoxy]-4-methoxy-phenyl}-acetic acid]",< 300
12,"CCc1ccc(CC(=O)O)cc1Oc1ccc(NC(=O)C(C)(C)C)cc1CSCC(F)(F)F [Compound 56, {3-[4-(2,2-Dimethyl-propionylamino)-2-(2,2,2-trifluoro-ethylsulfanylmethyl)-phenoxy]-4-ethyl-phenyl}-acetic acid]",< 300
13,"CC(C)(C)C(=O)Nc1ccc(Oc2cc(CC(=O)O)cc(C(F)(F)F)c2)c(CS(=O)(=O)CC(F)(F)F)c1 [Compound 33, {3-[4-(2,2-Dimethyl-propionylamino)-2-(trifluoro-ethanesulfonylmethyl)-phenoxy]-5-trifluoromethyl-phenyl}-acetic acid]",< 300
14,"CC(C)(C)C(=O)Nc1ccc(Oc2cc(CC(=O)O)ccc2OC(F)F)c(CSCC(F)(F)F)c1 [Compound 49, {4-Difluoromethoxy-3-[4-(2,2-dimethyl-propionylamino)-2-(2,2,2-trifluoro-ethylsulfanylmethyl)-phenoxy]-phenyl}-acetic acid]",< 300
15,"COc1ccc(CC(=O)O)cc1Oc1ccc(NC(=O)NCc2ccccc2)cc1CSCC(F)(F)F [Compound 3, {3-[4-(3-benzyl-ureido)-2-(2,2,2-trifluoro-ethylsulfanylmethyl)-phenoxy]-4-methoxy-phenyl}-acetic acid]",< 300
16,"COc1ccc(CC(=O)O)cc1Oc1ccc(C(=O)NC(C)(C)C)cc1CSC(C)(C)C [Compound 39, [3-(4-tert-Butylcarbamoyl-2-tert-butylsulfanylmethyl-phenoxy)-4-methoxy-phenyl]-acetic acid]",< 300
17,"COc1ccc(CC(=O)O)cc1Oc1ccc(C(=O)N(C)C(C)C)cc1CSC(C)(C)C [Compound 45, {3-[2-tert-butylsulfanylmethyl-4-(isopropyl-methyl-carbamoyl)-phenoxy]-4-methoxy-phenyl}-acetic acid]",> 1000

# Next, values leading:
row,IC50 [nM],SMILES
1,< 300,"Cc1ccc(CC(=O)O)cc1Oc1ccc(NC(=O)C(C)(C)C)cc1CSCC(F)(F)F [Compound 51, {3-[4-(2,2-Dimethyl-propionylamino)-2-(2,2,2-trifluoro-ethylsulfanylmethyl)-phenoxy]-4-methyl-phenyl}-acetic acid]"
2,< 300,"CC(C)(C)C(=O)Nc1ccc(Oc2cc(CC(=O)O)ccc2OC(F)F)c(CS(=O)(=O)CC(F)(F)F)c1 [Compound 50, {4-Difluoromethoxy-3-[4-(2,2-dimethyl-propionylamino)-2-(trifluoro-ethanesulfonylmethyl)-phenoxy]-phenyl}-acetic acid]"
3,< 300,"COc1ccc(CC(=O)O)cc1Oc1ccc(NC(=O)c2ccc(Cl)cc2)cc1CSC(C)(C)C [Compound 8, {3-[2-tert-butylsulfanylmethyl-4-(4-chloro-benzoylamino)-phenoxy]-4-methoxy-phenyl}-acetic acid]"
4,< 300,"CC(C)S(=O)(=O)Cc1cc(NC(=O)C(C)(C)C)ccc1Oc1cc(Cl)cc(CC(=O)O)c1 [Compound 31, {3-Chloro-5-[4-(2,2-dimethyl-propionylamino)-2-(propane-2-sulfonylmethyl)-phenoxy]-phenyl}-acetic acid]"
5,< 300,"COc1ccc(CC(=O)O)cc1Oc1ccc(C(=O)NC(C)(C)Cc2ccc(F)cc2)cc1CSC(C)(C)C [Compound 41, (3-{2-tert-butylsulfanylmethyl-4-[2-(4-fluoro-phenyl)-1,1-dimethyl-ethylcarbamoyl]-phenoxy}-4-methoxy-phenyl)-acetic acid]"
6,< 300,"COc1ccc(CC(=O)O)cc1Oc1ccc(C(=O)NCC(F)(F)F)cc1CSC(C)(C)C [Compound 44, {3-[2-tert-butylsulfanylmethyl-4-(2,2,2-trifluoro-ethylcarbamoyl)-phenoxy]-4-methoxy-phenyl}-acetic acid]"
7,< 300,"COc1ccc(CC(=O)O)cc1Oc1ccc(NC(=O)c2ccc(Cl)cc2)cc1C[S+]([O-])c1ccccc1 (centres unmarked) [Compound 23, {3-[2-Benzenesulfinylmethyl-4-(4-chloro-benzoylamino)-phenoxy]-4-methoxy-phenyl}-acetic acid]"
8,< 300,"COc1ccc(CC(=O)O)cc1Oc1ccc(NC(=O)NCc2ccccc2)cc1CSc1ccc(Cl)cc1 [Compound 6, {3-[4-(3-benzyl-ureido)-2-(4-chloro-phenylsulfanylmethyl)-phenoxy]-4-methoxy-phenyl}-acetic acid]"
9,< 300,"COc1ccc(CC(=O)O)cc1Oc1ccc(NC(=O)CC(C)(C)C)cc1CSCC(F)(F)F [Compound 16, {3-[4-(3,3-Dimethyl-butyrylamino)-2-(2,2,2-trifluoro-ethylsulfanylmethyl)-phenoxy]-4-methoxy-phenyl}-acetic acid]"
10,< 300,"COc1ccc(CC(=O)O)cc1Oc1ccc(NC(=O)c2ccc(Cl)cc2)cc1CS(=O)(=O)C(C)C [Compound 22, {3-[4-(4-Chloro-benzoylamino)-2-(propane-2-sulfonylmethyl)-phenoxy]-4-methoxy-phenyl}-acetic acid]"
11,< 300,"COc1ccc(CC(=O)O)cc1Oc1ccc(C(=O)NCCc2ccc(F)cc2)cc1CSC(C)C [Compound 27, (3-{4-[2-(4-Fluoro-phenyl)-ethylcarbamoyl]-2-isopropylsulfanylmethyl-phenoxy}-4-methoxy-phenyl)-acetic acid]"
12,< 300,"COc1ccc(CC(=O)O)cc1Oc1ccc(NC(=O)c2ccc(Cl)cc2)cc1CS(=O)(=O)c1ccccc1 [Compound 24, {3-[2-Benzenesulfonylmethyl-4-(4-chloro-benzoylamino)-phenoxy]-4-methoxy-phenyl}-acetic acid]"
